Test results as given in patent US5574026A, “Methods for inhibiting angiogenesis proliferation of endothelial or tumor cells and tumor growth” (American Cyanamid Company, priority 1994, dated 1996).
Counter-ions that a name gives are not always drawn. Like-named read-outs stand apart in the source and are kept apart here.

Experiments:
[1] = system: angiogenesis; settings: Brem et al; in words; cited from earlier work
[2] = system: A2780/DDP; assay: Antiproliferative activity in human tumor cell lines, PROTOCOL 1 and PROTOCOL 2; type: cell-based
Experimental: (§1) The assays are identified as follows: PROTOCOLS 1, 2, and 3 are described in greater detail hereinbelow. In general, according to PROTOCOLS 1 and 2, the target ABAE and/or Human Tumor cells are exposed to the compounds of Formula I for 48 hours. PROTOCOL 3 exposes ABAE cells to the compounds for 4 days. A detailed description of the Protocols is as follows: Antiproliferative Activity in Human Tumor Cell Lines The antiproliferative activity of the compounds of Formula I of the present invention is evaluated in a panel comprised of human tumor cell lines. […] Cultures are renewed after 20 passages with cells from a fresh stock of batch-frozen early passage cells. Cell lines are routinely checked for mycoplasma contamination (Genprobe). In a laminar flow hood, cells (1-5×10^4) are plated into 96-well microtiter plates in a volume of 0.1 ml/well with a bulk microtiter dispenser (Denley). […] Compounds are added using a Tomtec dispenser which simultaneously dispenses from one 96-well plate, containing the drug dilutions, to the plates containing the cells. After two days of continuous drug exposure, 50% cold trichloroacetic acid (TCA) is added to 10% final concentration to fix the cells, and after 60 minutes at 4° C., the TCA is aspirated and the plates are washed 5 times with deionized water using a microtiter plate washer. […] A 0.4% solution of the dye, sulforhodamine B, in glacial acetic acid is added to the plates, and the plates are washed 5 times with 1% glacial acetic acid using the automatic plate washed. The bound stain is solubilized with 0.1 ml of 10 mMTris base. The optical densities are read from an automatic spectrophotometric plate reader (Dynatech) directly to a main frame computer (VAX 8600). Positive controls, that include standard chemotherapeutic drugs (i.e., adriamycin, cisplatin, etc.), are included in every experiment. Background optical density measurements (complete media--cells, and complete media+drug-cells) are automatically subtracted from the appropriate control and test wells. Mean values and standard errors are determined from duplicate wells. A measure is also made of the optical density at time when the drugs are added. The number of cells after treatment (P), as % of control, is calculated for every concentration of drug, as follows: [formula] wherein: T is optical density measurement for treated cells after 48 hours; C is optical density measurement for untreated cells after 48 hours; Co is optical density measurement for cells at the time of drug addition. IC50 of Growth inhibition is calculated from the sets of P values using the RS-1 data package (BBN Software). Antiproliferative Activity in Human Tumor and Adult Bovine Aortic Endothelial Cell Lines (ABAE) The antiproliferative activity of the compounds of Formula I is evaluated in a panel comprised of human tumor cell lines as listed in Protocol 1 as well as an adult bovine aortic endothelial cell line (ABAE). This assay is a modification of PROTOCOL 1.

[3] = system: A2780S; assay: as above; type: cell-based
Experimental: as §1

[4] = system: HTB 161; assay: as above; type: cell-based; settings: HTB 161, 48 hours
Experimental: as §1

[5] = system: MIP; assay: as above; type: cell-based; settings: colon tumor cell line MIP, 48 hours
Experimental: (§2) The antiproliferative activity of the compounds of Formula I in an Adult Bovine Aortic Endothelial (ABAE) cell line and in Human Tumor cells lines is evaluated in three similar assays that measure growth inhibition. The assays are identified as follows:
(§3) PROTOCOLS 1, 2, and 3 are described in greater detail hereinbelow. In general, according to PROTOCOLS 1 and 2, the target ABAE and/or Human Tumor cells are exposed to the compounds of Formula I for 48 hours. PROTOCOL 3 exposes ABAE cells to the compounds for 4 days. A detailed description of the Protocols is as follows:
(§4) Antiproliferative Activity in Human Tumor Cell Lines
(§5) The antiproliferative activity of the compounds of Formula I of the present invention is evaluated in a panel comprised of human tumor cell lines. The human tumor cell lines are from
(§6) 2) Colon tumors: MIP, CACO2, and SW620.
(§7) All cell lines are maintained in log phase in RPMI 1640 media, supplemented with 5% fetal calf serum, penicillin/streptomycin and 2 mM L-glutamine. Cultures are renewed after 20 passages with cells from a fresh stock of batch-frozen early passage cells. Cell lines are routinely checked for mycoplasma contamination (Genprobe). In a laminar flow hood, cells (1-5×10^4) are plated into 96-well microtiter plates in a volume of 0.1 ml/well with a bulk microtiter dispenser (Denley). […] At this concentration, dimethylsulfoxide has no effect on cell growth. Compounds are added using a Tomtec dispenser which simultaneously dispenses from one 96-well plate, containing the drug dilutions, to the plates containing the cells. After two days of continuous drug exposure, 50% cold trichloroacetic acid (TCA) is added to 10% final concentration to fix the cells, and after 60 minutes at 4° C., the TCA is aspirated and the plates are washed 5 times with deionized water using a microtiter plate washer. The number of cells on the plate are quantitated using a protein dye-binding assay (Monks et al., 1991). A 0.4% solution of the dye, sulforhodamine B, in […] is added to the plates, and the plates are washed 5 times with 1% glacial acetic acid using the automatic plate washed. The bound stain is solubilized with 0.1 ml of 10 mMTris base. The optical densities are read from an automatic spectrophotometric plate reader (Dynatech) directly to a main frame computer (VAX 8600).
(§8) Positive controls, that include standard chemotherapeutic drugs (i.e., adriamycin, cisplatin, etc.), are included in every experiment.
(§9) Background optical density measurements (complete media--cells, and complete media+drug-cells) are automatically subtracted from the appropriate control and test wells. Mean values and standard errors are determined from duplicate wells. A measure is also made of the optical density at time when the drugs are added. The number of cells after treatment (P), as % of control, is calculated for every concentration of drug, as follows: [formula] wherein: T is optical density measurement for treated cells after 48 hours;
(§10) C is optical density measurement for untreated cells after 48 hours;
(§11) Co is optical density measurement for cells at the time of drug addition.
(§12) IC50 of Growth inhibition is calculated from the sets of P values using the RS-1 data package (BBN Software).
(§13) Antiproliferative Activity in Human Tumor and Adult Bovine Aortic Endothelial Cell Lines (ABAE)
(§14) The antiproliferative activity of the compounds of Formula I is evaluated in a panel comprised of human tumor cell lines as listed in Protocol 1 as well as an adult bovine aortic endothelial cell line (ABAE). This assay is a modification of PROTOCOL 1. The modifications include:
(§15) 1) each concentration for each compound is tested in a single well;
(§16) 2) compounds are tested at 20, 4, 0.8, 0.16 microgram/ml and additionally in some experiments at 100 and 0.32 microgram/ml;
(§17) 3) samples are pipetted into a 96-well plate for each of the cell lines by a Beckman Biomek 1000 SL robot; […]

[6] = system: SW620; assay: as above; type: cell-based
Experimental: as §2, §3, §4, §5, §6, §7, §8, §9, §10, §11, §12, §13, §14, §15, §16, §17

[7] = system: Human Tumor cell lines; assay: Antiproliferative activity in panel of human tumor cell lines (average / panel as a whole), PROTOCOL 1 and PROTOCOL 2; type: cell-based; settings: Homo sapiens; average over the tumor cell lines tested
Experimental: as §2, §3, §4, §5, §6, §7, §8, §9, §10, §11, §12, §13, §14, §15, §16, §17

[8] = system: Adult Bovine Aortic Endothelial (ABAE) cell line; assay: Antiproliferative activity in Adult Bovine Aortic Endothelial (ABAE) cell line, PROTOCOL 3 (4 days, cell count); type: cell-based; settings: for IC50: Bos taurus, 96 h
Experimental: as §2, §3
Antiproliferative Activity in Adult Bovine Aortic Endothelial (ABAE) Cell Line
ABAE cells are grown in DMEM media (Mediatech, Washington, D.C.) supplemented with 10% calf serum (Hyclone). ABAE cells are plated in 24-well dishes at 8,000 cells/well, followed by the addition of increasing concentrations of 7-halogen-9-[hydrogen or [(substituted glycyl)amido]]-6-demethyl-6-deoxytetracycline. After four days, the cells are detached and counted. […] The growth inhibition (I) as % of control is calculated as follows: [formula] wherein: Nc is the number of cells in untreated wells;
Nt is the number of cells in treated wells;
No is the number of plated cells.
IC50 of growth inhibition is determined from the sets of I values plotted by Kaleidograph software (Abelbeck Software).
Table 1 presents the results depicting the antiproliferative activity of the compounds of Formula I against an ABAE cell line, as evaluated by PROTOCOL 2 and PROTOCOL 3. The results are presented in terms of IC50 and are as follows.

[9] = system: CACO2; assay: Antiproliferative activity in human tumor cell lines, PROTOCOL 1 and PROTOCOL 2; type: cell-based; settings: Caco-2, colon tumor cell line CACO2, 48 hours, read-out: IC50
Experimental: as §2, §3, §4, §5, §6, §7, §8, §9, §10, §11, §12, §13, §14, §15, §16, §17

[10] = ovarian tumor cell line A2780S, 48 hours, read-out: IC50
[11] = SW-620, colon tumor cell line SW620, 48 hours, read-out: IC50

Which inhibition of angiogenesis [1] does the source give for `CN(C)[C@@H]1C(O)=C(C(N)=O)C(=O)[C@@]2(O)C(O)=C3C(=O)c4c(O)ccc(Cl)c4[C@@](C)(O)[C@H]3C[C@@H]12` [Chlortetracycline] here?
The inhibition of angiogenesis was “useful as inhibitors of angiogenesis”.

For `CN(C)[C@@H]1C(O)=C(C(N)=O)C(=O)[C@@]2(O)C(O)=C3C(=O)c4c(O)ccc(Cl)c4[C@@H](O)[C@H]3C[C@@H]12` [Demeclocycline], which inhibition of angiogenesis [1] is on record?
The inhibition of angiogenesis was “useful as inhibitors of angiogenesis”.

Which results are given for `CN(C)[C@@H]1C(O)=C(C(N)=O)C(=O)[C@@]2(O)C(O)=C3C(=O)c4c(O)c(NC(=O)CN5CCCC5)cc(I)c4CC3CC12` (stereo partly drawn) [Example 5, [7S-(7α,10aα)]-N-9-[(Aminocarbonyl)-7-(dimethylamino)-5,5a,6,6a,7,10,10a,12-octahydro-1,8,10a,11-tetrahydroxy-4-iodo-10,12-dioxo-2-naphthacenyl]-1-pyrrolidineacetamide dihydrochloride]?
IC50 ([2]; 48 h): 4 µg/mL; IC50 ([3]; A2780S, 48 h): 4 µg/mL; IC50 [4]: 3 µg/mL; IC50 [5]: 4 µg/mL; IC50 ([6]; SW-620, 48 h): 4 µg/mL; IC50 [7]: 3.8 µg/mL

Which results are given for `CN(C)[C@@H]1C(O)=C(C(N)=O)C(=O)[C@@]2(O)C(O)=C3C(=O)c4c(O)c(NC(=O)CN5CCCCC5)cc(I)c4CC3CC12` (stereo partly drawn) [Example 6, [7S-(7α,10aα)]-N-9-[(Aminocarbonyl)-7-(dimethylamino)-5,5a,6,6a,7,10,10a,12-octahydro-1,8,10a,11-tetrahydroxy-4-iodo-10,12-dioxo-2-naphthacenyl]-1-piperidine-acetamide dihydrochloride]?
IC50 ([8]; ABAE cells, PROTOCOL 3, 4 days, read-out: IC50 PROTOCOL 3): 2.5 µg/mL; IC50 ([8]; FIG. 1, ABAE, 4 day assay (Protocol 3), read-out: inhibits 50% of cell growth at): ~2 µg/mL; activity upon incubation with cells ([8]; FIG. 1, 4 day assay (Protocol 3), in words): retains its activity; activity in preventing the proliferation of ABAE cells compared to Minocycline ([8]; Table 1, in words): increased activity; IC50 ([2]; ovarian tumor cell line /DDP, 48 hours, read-out: IC50): 0.8 µg/mL; IC50 [3, 10]: 0.2 µg/mL; IC50 [4]: 0.2 µg/mL; IC50 [9]: 4 µg/mL; IC50 [5]: 0.6 µg/mL; IC50 [6, 11]: 0.4 µg/mL; IC50 [7]: 1 µg/mL

With `CN(C)[C@@H]1C(O)=C(C(N)=O)C(=O)[C@@]2(O)C(O)=C3C(=O)c4c(O)c(NC(=O)CNC5CCCC5)cc(I)c4CC3CC12` (stereo partly drawn) [Example 7, [4S-(4',12aα)]-9-[[(Cyclopentylamino)acetyl]amino]-4-(dimethylamino)-1,4,4a,5,5a,6,11,12a-octahydro-3,10,12,12a-tetrahydroxy-7-iodo-1,11-dioxo-2-maphthacenecarboxamide dihydrochloride] as the compound, how does the IC50 [3, 10] read?
Its IC50 is 2 µg/mL.

What about the IC50 [4] of the same compound?
The IC50 was 1 µg/mL.

What about the IC50 [6, 11] of the same compound?
The IC50 was 3 µg/mL.

And the IC50 [7]?
Its IC50 is 2 µg/mL.

For `CN(C)[C@@H]1C(O)=C(C(=O)NCNCCCC[C@H](N)C(=O)O)C(=O)[C@@]2(O)C(O)=C3C(=O)c4c(O)cccc4[C@@](C)(O)[C@H]3C[C@@H]12` [Lymecycline], which inhibition of angiogenesis [1] is on record?
Its inhibition of angiogenesis is “useful as inhibitors of angiogenesis”.
